Values of other authors in PMC4726456 (Cell, 2014).

Legend:
cellular microtubules = settings: ref Piperno et al., 1987; Takemura et al., 1992
tubulin = settings: ref Mulder et al., 2009

| Compound | Effect on microtubule acetylation levels in cells (cellular microtubules) | Induction of tubulin rings (tubulin) |
| --- | --- | --- |
| CC(=O)O[C@H]1C(=O)[C@@]2(C)[C@H]([C@H](OC(=O)c3ccccc3)[C@]3(O)C[C@H](OC(=O)[C@H](O)[C@@H](NC(=O)c4ccccc4)c4ccccc4)C(C)=C1C3(C)C)[C@]1(OC(C)=O)CO[C@@H]1C[C@@H]2O [taxol] | increases acetylation levels | – |
| Dolastatin-10 | – | induces tubulin rings by curving individual protofilaments |
